Results reported in ChEMBL document CHEMBL4680208, “Sulfone derivatives enter the cytoplasm of Candida albicans sessile cells” (Eur J Med Chem, 2020).
In brackets after ≈: the same amount, converted by molar mass. Activity calls are given as the source filed them. The calls are words filed in the database; no cut-off is given here.

What was measured:
Candida albicans [1] = test: Antifungal activity against Candida albicans 90028 assessed as fungal growth inhibition at 16 ug/ml measured after 18 hrs by microdilution method relative to control; type: functional; conditions: read-out: GI
Candida albicans [2] = test: Antifungal activity against Candida albicans 90028 assessed as fungal growth inhibition at 8 ug/ml measured after 18 hrs by microdilution method relative to control; type: functional; conditions: read-out: GI
Candida albicans [3] = test: Antifungal activity against Candida albicans 90028 assessed as fungal growth inhibition at 4 ug/ml measured after 18 hrs by microdilution method relative to control; type: functional; conditions: read-out: GI
Candida albicans [4] = test: Antifungal activity against Candida albicans 90028 assessed as fungal growth inhibition at 2 ug/ml measured after 18 hrs by microdilution method relative to control; type: functional; conditions: read-out: GI
Candida albicans [5] = test: Antifungal activity against Candida albicans 90028 assessed as fungal growth inhibition at 1 ug/ml measured after 18 hrs by microdilution method relative to control; type: functional; conditions: read-out: GI
Candida albicans [6] = test: Antifungal activity against Candida albicans 90028 assessed as fungal growth inhibition at 0.5 ug/ml measured after 18 hrs by microdilution method relative to control; type: functional; conditions: read-out: GI
Candida albicans [7] = test: Antifungal activity against Candida albicans 90028 assessed as fungal growth inhibition at 0.25 ug/ml measured after 18 hrs by microdilution method relative to control; type: functional; conditions: read-out: GI
Candida albicans [8] = test: Antifungal activity against Candida albicans 90028 assessed as fungal growth inhibition at 0.125 ug/ml measured after 18 hrs by microdilution method relative to control; type: functional; conditions: read-out: GI
Candida albicans [9] = test: Antifungal activity against Candida albicans 90028 assessed as fungal growth inhibition at 0.0625 ug/ml measured after 18 hrs by microdilution method relative to control; type: functional; conditions: read-out: GI
Candida albicans [10] = test: Antifungal activity against Candida albicans 90028 assessed as fungal growth inhibition at 0.0313 ug/ml measured after 18 hrs by microdilution method relative to control; type: functional; conditions: read-out: GI
Candida albicans [11] = test: Antifungal activity against Candida albicans 90028 assessed as fungal growth inhibition at 16 ug/ml measured after 48 hrs by microdilution method relative to control; type: functional; conditions: read-out: GI
Candida albicans [12] = test: Antifungal activity against Candida albicans 90028 assessed as fungal growth inhibition at 8 ug/ml measured after 48 hrs by microdilution method relative to control; type: functional; conditions: read-out: GI
Candida albicans [13] = test: Antifungal activity against Candida albicans 90028 assessed as fungal growth inhibition at 4 ug/ml measured after 48 hrs by microdilution method relative to control; type: functional; conditions: read-out: GI
Candida albicans [14] = test: Antifungal activity against Candida albicans 90028 assessed as fungal growth inhibition at 2 ug/ml measured after 48 hrs by microdilution method relative to control; type: functional; conditions: read-out: GI
Candida albicans [15] = test: Antifungal activity against Candida albicans 90028 assessed as fungal growth inhibition at 1 ug/ml measured after 48 hrs by microdilution method relative to control; type: functional; conditions: read-out: GI
Candida albicans [16] = test: Antifungal activity against Candida albicans 90028 assessed as fungal growth inhibition at 0.5 ug/ml measured after 48 hrs by microdilution method relative to control; type: functional; conditions: read-out: GI
Candida albicans [17] = test: Antifungal activity against Candida albicans 90028 assessed as fungal growth inhibition at 0.25 ug/ml measured after 48 hrs by microdilution method relative to control; type: functional; conditions: read-out: GI
Candida albicans [18] = test: Antifungal activity against Candida albicans 90028 assessed as fungal growth inhibition at 0.125 ug/ml measured after 48 hrs by microdilution method relative to control; type: functional; conditions: read-out: GI
Candida albicans [19] = test: Antifungal activity against Candida albicans 90028 assessed as fungal growth inhibition at 0.0625 ug/ml measured after 48 hrs by microdilution method relative to control; type: functional; conditions: read-out: GI
Candida albicans [20] = test: Antifungal activity against Candida albicans 90028 assessed as fungal growth inhibition at 0.0313 ug/ml measured after 48 hrs by microdilution method relative to control; type: functional; conditions: read-out: GI
Candida albicans [21] = test: Antifungal activity against Candida albicans 90028 assessed as fungal growth inhibition measured after 48 hrs by microdilution method; type: functional
Candida albicans [22] = test: Fungicidal activity against Candida albicans 90028 preincubated for 48 hrs followed by plating on SD agar and measured after 48 hrs; type: functional; conditions: time 96 hrs
Candida albicans [23] = test: Antifungal activity against Candida albicans 90028 infected in Galleria mellonella larvae assessed as increase in larvae survival at MFC measured 96 hrs post-infection relative to control; type: functional
Vero = test: Cytotoxicity against African green monkey Vero cells at 0.25 to 8 ug/ml after 18 hrs by XTT assay relative to control; type: cell-based; conditions: chlorocebus sabaeus, at 0.25 to 8 µg/mL, dose 0.25-8 µg/ml
[24] = Cytotoxicity against African green monkey Vero cells by XTT assay; type: cell-based; conditions: chlorocebus sabaeus
[25] = Cytotoxicity against human MRC5 cells by CellTiter 96 Aqueous One Solution Reagent based assay; type: cell-based
[26] = Toxicity in Galleria mellonella larvae assessed as survival at 16 ug/ml relative to control; conditions: at 16 µg/mL
Candida albicans [27] = test: Antifungal activity against Candida albicans 90028 infected in Galleria mellonella larvae at 4 ug/ml by H and E staining based histological analysis; type: functional, organism-based; conditions: dose 4.0 µg/ml
Candida albicans [28] = test: Induction of plasma membrane disruption in Candida albicans assessed as accidental type cell death at 4 ug/ml measured after 18 hrs by Annexin V-FITC/propidium iodide staining based flow cytometry (reference value: 1.74 +/- 1.37%); conditions: dose 4.0 µg/ml
Candida albicans [29] = test: Anti-adhesive activity against Candida albicans assessed as reduction in […] adhesion to human TR146 cells at 4 ug/ml incubated for 2 hrs prior to cell infection and measured after 2 hrs by colony counting method relative to control; type: functional; parameters: scale not given: the % may be the effect or the level left; conditions: dose 4 µg/ml; time 4 hrs
[30] = Induction of adhesive activity against Candida albicans assessed as increase in […] adhesion to human TR146 cells at 2 ug/ml incubated for 2 hrs prior to cell infection and measured after 2 hrs by colony counting method relative to control; type: cell-based; conditions: tr146, 4 h, dose 2 µg/ml
Candida albicans [31] = test: Antibiofilm activity against Candida albicans 90028 assessed as cell killing at 128 ug/ml by XTT assay relative to control; type: functional; conditions: dose 128 µg/ml
Candida albicans [32] = test: Antibiofilm activity against Candida albicans 90028 assessed as increasing in cell killing by XTT assay; type: functional
[33] = Cytotoxicity against human TR146 cells assessed as induction of lysosomal membrane permeabilization at 16 ug/ml measured after 18 hrs by AO/propidium iodide staining based confocal laser scanning microscopy; type: cell-based; conditions: tr146, 18 h, dose 16 µg/ml
Candida albicans [34] = test: Induction of morphological changes in Candida albicans biofilm infected in human TR146 cells at 16 ug/ml measured after 20 hrs by fluorescence microscopy based QCM-D analysis; type: functional, organism-based; conditions: dose 16.0 µg/ml

Compound `NNc1ccc(S(=O)(=O)C(Cl)(Cl)Br)cc1[N+](=O)[O-]` has an inhibition of growth at 16 µg/mL (Candida albicans [1]) of 99.9%, an inhibition of growth at 8 µg/mL (Candida albicans [2]) of 99.9% and an inhibition of growth at 4 µg/mL (Candida albicans [3]) of 99.7%. The inhibition of growth at 2 µg/mL (Candida albicans [4]) was 100%, the inhibition of growth at 1 µg/mL (Candida albicans [5]) was 99.8% and the inhibition of growth at 0.5 µg/mL (Candida albicans [6]) was 99.7%. The inhibition of growth at 0.25 µg/mL (Candida albicans [7]) was 98.9%, the inhibition of growth at 0.125 µg/mL (Candida albicans [8]) was 99.2% and the inhibition of growth at 0.0625 µg/mL (Candida albicans [9]) was 99.4%. It also gave an inhibition of growth at 0.0313 µg/mL (Candida albicans [10]) of 99.7%, an inhibition of growth at 16 µg/mL (Candida albicans [11]) of 100% and an inhibition of growth at 8 µg/mL (Candida albicans [12]) of 100%. The inhibition of growth at 4 µg/mL (Candida albicans [13]) was 100%, the inhibition of growth at 2 µg/mL (Candida albicans [14]) was 99.9% and the inhibition of growth at 1 µg/mL (Candida albicans [15]) was 99.2%. For the same compound, the inhibition of growth at 0.5 µg/mL (Candida albicans [16]) was 99.2%, the inhibition of growth at 0.25 µg/mL (Candida albicans [17]) was 98.9% and the inhibition of growth at 0.125 µg/mL (Candida albicans [18]) was 98.9%. The inhibition of growth at 0.0625 µg/mL (Candida albicans [19]) was 98.9%, the inhibition of growth at 0.0313 µg/mL (Candida albicans [20]) was 98.7% and the MIC90 (Candida albicans [21]) was 2 µg/mL (≈ 5.28 µM). For the same compound, the MFC (Candida albicans [22]) was 4 µg/mL (≈ 10.6 µM), the Activity (Candida albicans [23]) was 63.57% and the Activity (Vero) was 43.12%. For the same compound, the CC50 [24] was at least 8 µg/mL, the CC50 [25] was at least 16 µg/mL and the survival [26] was 93%. The Activity (Candida albicans [27]) was “Active”, the Activity (Candida albicans [28]) was 79% and the Activity (Candida albicans [29]) was 100%. The “fold change (FC)” value [30] was 1.03, the Activity (Candida albicans [31]) was 40% and the CC50 (Candida albicans [32]) was at most 128 µg/mL. For the same compound, the Activity [33] was “Non-Toxic” and the Activity (Candida albicans [34]) was “Active”.
